From patent publication US20050267073A1, “Triheterocyclic compounds, compositions, and methods for treating cancer or viral diseases” (priority 2004, published 2005)
Structures can show the parent of a compound that is named as a salt. Where two headings read alike, the source gives them in different places.

Legend:
[1] = test system: C33A human cervical cancer cells; conditions: for reduction in tumor growth compared to vehicle only: 4.5 mg/kg IV once a day for five days, C33A tumors in SCID mice, FIG. 3; for T/C value: 4.5 mg/kg IV once daily for five days
Description: The resultant mice are a model for a human having cervical cancer.
The C33A human cervical cancer cells were maintained in RPMI (Hyclone, Utah, USA) supplemented with 10% inactivated fetal bovine serum (Bio-Whittaker, MD, USA) and 1% penicillin-streptomycin-L-Glutamine (Gibco, N.Y., USA), under 5% CO2 at 37° C., and passaged twice a week. The cells were grown at a confluency lower than 70% and than collected with Trypsin (Bio-Whittaker, MD, USA). The cells were then centrifuged and washed twice using phosphate buffered saline solution (PBS) and resuspended in PBS at 2×10^6 cells per 100 μl.
C33A cells were injected subcutaneously into the flank of female CB17 SCID/SCID mice. Each mouse was inoculated with a suspension of 2×10^6 tumors cells per 150 μl on day zero.
Treatments started on day fourteen after C33A cells transplantation. […] The negative control group was treated with vehicle alone. […] The positive control group was treated once every 3 days for five times with cisplatin (Sigma, St. Louis, Mo., USA) at a dose of 4 mg/kg. Cisplatin was formulated in PBS on each day of the injection and was administered IP in an injection volume of 80 μl.
The mice were weighed and the tumors measured on day 13 and every 2 days after treatment commenced. Observation continued for 40 days after initial tumor implantation. The changes in body weight and in the calculated tumor volume were plotted.

[2] = Shelf stability (precipitation) of formulation; type: physicochemical; conditions: 0.6 mg/mL in 9.6% polyethylene glycol 300, 0.4% polysorbate 20 and 5% dextrose; listed as Compound 1 Tartrate Salt
Description: To determine whether a compound is soluble in a solution, the solution was filtered on 0.2 μM polytetrafluoroethylene filters (Whatman Inc. Clifton, N.J., USA) and the compound concentration in the filtrate was measured by LC/MS and compared to the expected concentration.

[3] = type: in vivo, CB17 SCID/SCID mice; conditions: 4.5 mg/kg IV once daily for five days, FIG. 2
Description: Treatments started on day fourteen after C33A cells transplantation. […]. The negative control group was treated with vehicle alone. […].
Observation continued for 40 days after initial tumor implantation.

[4] = test system: C33A cervical carcinoma cells; experiment: cells; type: cell-based; conditions: C-33A, Cervix; ATP levels 72 h post-treatment compared to untreated cells; read-out: IC50 of Compound 1 tartrate
Source text: (§1) […]. […] […]. The total dimethyl sulfoxide on the cells was 1%. […] […].
(§2) As depicted in Table 4, these compounds were efficient in decreasing cellular ATP levels in HI 299 and C33A cancer cell lines. Nevertheless, these compounds are believed to have utility in the in vivo methods of the invention, i.e., treatment and prevention of cancer and viral infections, respectively. It should be noted that, although this cell-based assay is believed to be indicative of anti-oncogenic activity in vivo, it is not the only useful assay for evaluating the anti-oncogenic activity of Triheterocyclic Compounds of the invention. In addition, the anti-viral and other biological activity of compounds of the invention can be determined and evaluated in other assay systems known to the skilled artisan.

[5] = test system: cancer cell lines H1299 and C33A, normal cell lines HMEC and MRC-5; conditions: 0.5 μM, 72 hours after treatment; H1299 and C33A vs HMEC and MRC-5; FIG. 1
Description: (§3) The cells lines were plated in 96-well microtiter plates (PerkinElmer Life Sciences Inc, Boston, Mass., USA) at a confluency that allowed them to reach confluence after 4 days of growth. […] The total dimethyl sulfoxide on the cells was 1%. After 3 days of incubation the ATP levels in the cells were quantified using a luminescent ViaLight detection system (Bio-Whittaker, MD, USA).

[6] = test system: SW-480 human adenocarcinoma cell line; conditions: read-out: IC50 of Compound 1 tartrate; SW-480, Colorectal; ATP levels 72 h post-treatment compared to untreated cells
Description: as §3

[7] = test system: A549 human lung carcinoma cell line; conditions: read-out: IC50 of Compound 1 tartrate; A549, NSCLC; ATP levels 72 h post-treatment compared to untreated cells
Description: as §3

[8] = test system: HMEC normal mammary epithelial cells
Description: as §3

[9] = test system: MCF-7 human breast cancer cell line; conditions: read-out: IC50 of Compound 1 tartrate; MCF-7, Breast; ATP levels 72 h post-treatment compared to untreated cells
Description: as §3

[10] = test system: PC-3 human prostatic carcinoma cell line; conditions: read-out: IC50 of Compound 1 tartrate; PC-3, Prostate; ATP levels 72 h post-treatment compared to untreated cells
Description: as §3

[11] = test system: OVCAR-3 human ovarian carcinoma cell line; conditions: read-out: IC50 of Compound 1 tartrate; OVCAR-3, Ovary; ATP levels 72 h post-treatment compared to untreated cells
Description: as §3

[12] = test system: H460 non-small cell lung cancer cell line; conditions: read-out: IC50 of Compound 1 tartrate; H460, NSCLC; ATP levels 72 h post-treatment compared to untreated cells
Description: as §3

[13] = test system: B16-F1 mouse melanoma cell line; conditions: read-out: IC50 of Compound 1 tartrate; B16-F1, Murine Melanoma; ATP levels 72 h post-treatment compared to untreated cells
Description: as §3

[14] = test system: ADR-RES human breast cancer cell line; conditions: read-out: IC50 of Compound 1 tartrate; NCI/ADR-RES, Breast (Mutli-drug resistant); ATP levels 72 h post-treatment compared to untreated cells
Description: as §3

[15] = test system: H1299 human non-small cell lung cancer cells; experiment: Cell viability by cellular ATP levels (ViaLight), H1299 cells; type: cell-based; conditions: H1299, NSCLC; ATP levels 72 h post-treatment compared to untreated cells; read-out: IC50 of Compound 1 tartrate
Source text: as §1, §2

SMILES: COC1=CC(c2cc3ccccc3[nH]2)=N/C1=C\c1[nH]c(C)cc1C [Compound 1 tartrate]
- reduction in tumor growth compared to vehicle only [1]: statistically significant (p<0.0001) reduction in tumor growth
- reduction in tumor growth compared to vehicle only ([1]; listed as Compound 1 Tartrate): significantly reduces the human cervical tumors
- T/C value ([1]; day 36): 14%
- T/C value ([1]; day 39): 22%
- average tumor size versus vehicle only ([1]; days 36 and 39, 4.5 mg/kg): significantly (p<0.001) smaller tumors
- precipitation of formulation [2]: tends to precipitate one hour after its preparation
- body weight change [3]: no significant changes in body weight
- body weight change ([3]; listed as Compound 1 Tartrate): non-significant weight loss
- IC50 [4]: 200 nM
- lowering of ATP levels in cancer cell lines compared with normal cell lines [5]: significantly more effective at lowering ATP levels
- IC50 [6]: 200 nM
- IC50 [7]: 400 nM
- IC50 ([8]; read-out: IC50 of Compound 1 tartrate, HMEC, Normal Breast, ATP levels 72 h post-treatment compared to untreated cells): 4000 nM
- efficacy in decreasing cellular ATP levels in cancer cell lines versus HMEC normal cell line ([8]; ten cancer cell lines vs HMEC, various concentrations): greater efficacy in decreasing cellular ATP levels
- IC50 [9]: 600 nM
- IC50 [10]: 200 nM
- IC50 [11]: 200 nM
- IC50 [12]: 300 nM
- IC50 [13]: 60 nM
- IC50 [14]: 400 nM
- IC50 [15]: 500 nM
